ChEMBL document CHEMBL1909046, “DrugMatrix in vitro pharmacology data”

Columns and labels:
[1] = biological target: 5-hydroxytryptamine receptor 6 (Homo sapiens, UniProt P50406); format: cell membranes, HeLa, Membrane; details: hela
[2] = biological target: T1, B2 bradykinin receptor (Homo sapiens, UniProt P30411); format: cell membranes, Membrane; details: chem-1
T1 sequence (P30411 whole entry): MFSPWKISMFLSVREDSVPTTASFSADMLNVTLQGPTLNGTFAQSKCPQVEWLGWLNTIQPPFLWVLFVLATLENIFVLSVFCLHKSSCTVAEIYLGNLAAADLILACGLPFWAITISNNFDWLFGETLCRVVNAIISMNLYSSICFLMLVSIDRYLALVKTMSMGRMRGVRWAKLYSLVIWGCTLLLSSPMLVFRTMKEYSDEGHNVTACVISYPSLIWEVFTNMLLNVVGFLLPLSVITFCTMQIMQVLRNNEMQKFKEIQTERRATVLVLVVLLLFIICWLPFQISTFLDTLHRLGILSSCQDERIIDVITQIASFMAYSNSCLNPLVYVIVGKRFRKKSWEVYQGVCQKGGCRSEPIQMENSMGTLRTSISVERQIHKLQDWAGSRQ

[3] = biological target: T2, Receptor-type tyrosine-protein phosphatase C (Homo sapiens, UniProt P08575); parameters: species or system Escherichia coli;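 note: inhibition of CD45 enzyme activity measured using DiFMUP as substrate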
T2 sequence (P08575 whole entry): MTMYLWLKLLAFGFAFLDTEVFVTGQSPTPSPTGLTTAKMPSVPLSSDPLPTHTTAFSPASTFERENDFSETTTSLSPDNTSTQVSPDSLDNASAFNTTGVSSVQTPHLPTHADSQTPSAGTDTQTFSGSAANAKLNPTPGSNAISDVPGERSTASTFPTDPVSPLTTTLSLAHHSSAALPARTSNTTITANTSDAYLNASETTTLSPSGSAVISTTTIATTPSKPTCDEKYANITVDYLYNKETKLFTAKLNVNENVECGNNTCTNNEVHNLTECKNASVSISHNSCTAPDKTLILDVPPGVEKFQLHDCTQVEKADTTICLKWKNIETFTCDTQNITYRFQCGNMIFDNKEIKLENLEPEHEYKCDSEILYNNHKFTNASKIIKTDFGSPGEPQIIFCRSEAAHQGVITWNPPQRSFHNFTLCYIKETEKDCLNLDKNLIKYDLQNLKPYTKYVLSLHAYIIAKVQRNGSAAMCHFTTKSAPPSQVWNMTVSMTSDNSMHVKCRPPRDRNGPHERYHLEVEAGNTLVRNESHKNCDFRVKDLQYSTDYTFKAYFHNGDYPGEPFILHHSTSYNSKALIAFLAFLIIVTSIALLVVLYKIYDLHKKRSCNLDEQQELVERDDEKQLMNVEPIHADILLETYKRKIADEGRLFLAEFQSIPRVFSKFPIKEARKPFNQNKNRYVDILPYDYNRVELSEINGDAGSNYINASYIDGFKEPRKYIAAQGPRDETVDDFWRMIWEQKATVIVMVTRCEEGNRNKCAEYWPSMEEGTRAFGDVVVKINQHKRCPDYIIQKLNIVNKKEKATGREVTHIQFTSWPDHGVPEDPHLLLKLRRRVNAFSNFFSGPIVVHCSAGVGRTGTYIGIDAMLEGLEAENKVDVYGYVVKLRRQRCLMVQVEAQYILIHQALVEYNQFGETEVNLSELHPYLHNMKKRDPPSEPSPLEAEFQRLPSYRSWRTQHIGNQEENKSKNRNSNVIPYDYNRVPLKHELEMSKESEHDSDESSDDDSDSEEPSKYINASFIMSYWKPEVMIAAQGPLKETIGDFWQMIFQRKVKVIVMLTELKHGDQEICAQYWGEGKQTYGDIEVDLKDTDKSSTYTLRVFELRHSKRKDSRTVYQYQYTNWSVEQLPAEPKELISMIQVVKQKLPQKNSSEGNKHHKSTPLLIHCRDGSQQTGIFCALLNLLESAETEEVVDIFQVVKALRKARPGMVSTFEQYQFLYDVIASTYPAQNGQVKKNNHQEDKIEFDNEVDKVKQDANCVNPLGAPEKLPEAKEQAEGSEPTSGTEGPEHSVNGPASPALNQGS

[4] = biological target: Estrogen receptor beta (Homo sapiens, UniProt Q92731); details: sf9
[5] = biological target: T3, Estrogen receptor (Homo sapiens, UniProt P03372); details: sf9
T3 sequence (P03372 whole entry): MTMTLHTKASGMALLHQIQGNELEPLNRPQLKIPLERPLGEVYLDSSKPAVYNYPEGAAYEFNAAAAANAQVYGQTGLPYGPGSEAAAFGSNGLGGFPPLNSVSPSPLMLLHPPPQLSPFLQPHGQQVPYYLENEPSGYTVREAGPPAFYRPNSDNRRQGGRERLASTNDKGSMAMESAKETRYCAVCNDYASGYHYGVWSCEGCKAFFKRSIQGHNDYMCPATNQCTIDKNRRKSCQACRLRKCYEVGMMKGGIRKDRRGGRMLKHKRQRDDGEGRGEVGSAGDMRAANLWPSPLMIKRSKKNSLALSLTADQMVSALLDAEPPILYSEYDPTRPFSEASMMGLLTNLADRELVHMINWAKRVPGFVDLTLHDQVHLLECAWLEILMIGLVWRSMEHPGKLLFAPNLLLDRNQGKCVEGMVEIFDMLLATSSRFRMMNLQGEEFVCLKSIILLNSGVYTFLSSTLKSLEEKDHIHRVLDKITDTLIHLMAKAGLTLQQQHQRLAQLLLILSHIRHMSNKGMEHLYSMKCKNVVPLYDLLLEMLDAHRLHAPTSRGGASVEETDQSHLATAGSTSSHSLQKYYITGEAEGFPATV

[6] = biological target: Cytochrome P450 2C9 (Homo sapiens, UniProt P11712); details: bti-tn-5b1-4
Note: in other assays of this panel Not Active means under 50% inhibition at 10 µM.

Sequence of Estrogen receptor beta (Q92731 whole entry): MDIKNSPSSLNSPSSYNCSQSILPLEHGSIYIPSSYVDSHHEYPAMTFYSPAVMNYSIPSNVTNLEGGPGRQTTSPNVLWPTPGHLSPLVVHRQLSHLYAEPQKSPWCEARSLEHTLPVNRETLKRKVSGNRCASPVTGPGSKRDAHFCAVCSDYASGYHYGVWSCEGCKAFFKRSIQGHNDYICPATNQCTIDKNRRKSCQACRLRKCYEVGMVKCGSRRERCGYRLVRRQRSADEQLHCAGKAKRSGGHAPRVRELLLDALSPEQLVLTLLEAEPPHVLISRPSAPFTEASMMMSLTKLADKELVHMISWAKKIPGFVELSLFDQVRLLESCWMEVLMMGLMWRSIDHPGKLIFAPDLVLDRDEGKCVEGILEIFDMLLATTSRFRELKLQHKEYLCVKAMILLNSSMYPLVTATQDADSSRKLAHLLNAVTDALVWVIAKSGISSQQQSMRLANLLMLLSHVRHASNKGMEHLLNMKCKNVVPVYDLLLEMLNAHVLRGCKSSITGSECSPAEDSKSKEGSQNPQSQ
Sequence of 5-hydroxytryptamine receptor 6 (P50406 whole entry): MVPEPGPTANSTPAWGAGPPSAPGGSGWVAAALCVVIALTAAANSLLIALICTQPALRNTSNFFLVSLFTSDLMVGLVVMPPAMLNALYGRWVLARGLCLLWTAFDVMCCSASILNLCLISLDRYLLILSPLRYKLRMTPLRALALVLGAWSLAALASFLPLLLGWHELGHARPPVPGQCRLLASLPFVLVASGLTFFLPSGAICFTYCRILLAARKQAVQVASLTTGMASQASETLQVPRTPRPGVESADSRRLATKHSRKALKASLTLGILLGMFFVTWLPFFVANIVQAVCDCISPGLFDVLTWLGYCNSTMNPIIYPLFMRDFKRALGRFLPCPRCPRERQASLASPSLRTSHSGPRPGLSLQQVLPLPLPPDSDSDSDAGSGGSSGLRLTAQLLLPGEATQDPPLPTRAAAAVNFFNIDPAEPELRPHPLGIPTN
Sequence of Cytochrome P450 2C9 (P11712 whole entry): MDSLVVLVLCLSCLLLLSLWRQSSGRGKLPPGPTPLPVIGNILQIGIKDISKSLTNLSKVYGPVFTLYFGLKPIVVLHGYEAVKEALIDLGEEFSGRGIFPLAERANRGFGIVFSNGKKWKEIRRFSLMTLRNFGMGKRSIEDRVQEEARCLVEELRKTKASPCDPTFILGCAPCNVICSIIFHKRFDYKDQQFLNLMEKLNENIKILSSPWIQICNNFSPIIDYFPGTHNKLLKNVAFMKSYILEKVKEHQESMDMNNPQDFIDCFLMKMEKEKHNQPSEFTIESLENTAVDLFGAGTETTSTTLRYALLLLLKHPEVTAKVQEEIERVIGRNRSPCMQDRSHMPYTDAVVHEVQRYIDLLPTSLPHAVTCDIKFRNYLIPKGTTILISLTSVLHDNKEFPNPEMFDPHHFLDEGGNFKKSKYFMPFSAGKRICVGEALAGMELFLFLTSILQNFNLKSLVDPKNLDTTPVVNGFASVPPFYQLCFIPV

c1ccc2[nH]c(-c3cscn3)nc2c1 [THIABENDAZOLE]
Not Active: IC50 [1] | IC50 [2] | IC50 [3] | IC50 [4] | IC50 [5] | IC50 [6] | Ki [6]

COc1c(C)c2c(c(O)c1C/C=C(\C)CCC(=O)OCCN1CCOCC1)C(=O)OC2 [MYCOPHENOLATE MOFETIL]
Not Active: IC50 [1] | IC50 [2] | IC50 [3] | IC50 [4] | IC50 [5] | IC50 [6] | Ki [6]

CC1CN(c2cc3c(cc2F)c(=O)c(C(=O)O)cn3-c2ccc(F)cc2F)CCN1 (stereo not drawn) [TEMAFLOXACIN]
Not Active: IC50 [1] | IC50 [2] | IC50 [3] | IC50 [4] | IC50 [5] | IC50 [6] | Ki [6]

IVERMECTIN
Not Active: IC50 [1] | Ki [1] | IC50 [2] | Ki [2] | IC50 [3] | Ki [3] | IC50 [4] | Ki [4] | IC50 [5] | Ki [5] | IC50 [6] | Ki [6]

Cc1ccc(C(=O)C(C)CN2CCCCC2)cc1 (stereo not drawn) [TOLPERISONE]
Not Active: IC50 [1] | IC50 [2] | IC50 [3] | IC50 [4] | IC50 [5] | IC50 [6] | Ki [6]

NC(=O)c1ccccc1O [SALICYLAMIDE]
Not Active: IC50 [1] | IC50 [2] | IC50 [3] | IC50 [4] | IC50 [5] | IC50 [6] | Ki [6]

CCC[C@@H]1C[C@@H](C(=O)N[C@@H]([C@H]2O[C@H](SC)[C@H](O)[C@@H](O)[C@H]2O)[C@@H](C)O)N(C)C1 [LINCOMYCIN]
Not Active: IC50 [1] | IC50 [2] | IC50 [3] | IC50 [4] | IC50 [5] | IC50 [6] | Ki [6]

CC(C)(O)c1ccccc1CC[C@@H](SCC1(CC(=O)O)CC1)c1cccc(/C=C/c2ccc3ccc(Cl)cc3n2)c1 [MONTELUKAST]
Not Active: IC50 [1] | IC50 [2] | IC50 [3] | IC50 [4] | IC50 [5] | IC50 [6] | Ki [6]

CC(C)[C@H](N)C(=O)OCCOCn1cnc2c(=O)nc(N)[nH]c21 [VALACYCLOVIR]
Not Active: IC50 [1] | IC50 [2] | IC50 [3] | IC50 [4] | IC50 [5] | IC50 [6] | Ki [6]

COC(=O)c1ccc(O)cc1 [METHYLPARABEN]
Not Active: IC50 [1] | IC50 [2] | IC50 [3] | IC50 [4] | IC50 [5] | IC50 [6] | Ki [6]

CO[C@@H]1[C@@H](O[C@@H]2O[C@H](C)[C@@H](O[C@H]3C[C@@](C)(O)[C@@H](OC(=O)CC(C)C)[C@H](C)O3)[C@H](N(C)C)[C@H]2O)[C@@H](CC=O)C[C@@H](C)[C@@H](O)/C=C/C=C/C[C@@H](C)OC(=O)C[C@H]1O [KITASAMYCIN]
Not Active: IC50 [1] | IC50 [2] | IC50 [3] | IC50 [4] | IC50 [5] | IC50 [6] | Ki [6]

CCOC(=O)[C@H](CCc1ccccc1)N[C@@H](C)C(=O)N1[C@H](C(=O)O)C[C@@H]2CCC[C@@H]21
Not Active: IC50 [1] | IC50 [2] | IC50 [3] | IC50 [4] | IC50 [5] | IC50 [6] | Ki [6]

CC(C)(C)NCC(O)c1ccc(O)c(CO)c1 (stereo not drawn) [ALBUTEROL]
Not Active: IC50 [1] | IC50 [2] | IC50 [3] | IC50 [4] | IC50 [5] | IC50 [6] | Ki [6]

CC(CCc1ccccc1)NCC(O)c1ccc(O)c(C(N)=O)c1 (stereo not drawn) [LABETALOL]
Not Active: IC50 [1] | IC50 [2] | IC50 [3] | IC50 [4] | IC50 [5] | IC50 [6] | Ki [6]

CN(N=O)C(=O)N[C@@H](C=O)[C@@H](O)[C@H](O)[C@H](O)CO [STREPTOZOCIN]
Not Active: IC50 [1] | IC50 [2] | IC50 [3] | IC50 [4] | IC50 [5] | IC50 [6] | Ki [6]

O=[N+]([O-])c1cc([As](=O)(O)O)ccc1O [ROXARSONE]
Not Active: IC50 [1] | Ki [1] | IC50 [2] | Ki [2] | IC50 [3] | Ki [3] | IC50 [4] | Ki [4] | IC50 [5] | Ki [5] | IC50 [6] | Ki [6]

Cc1ncc([N+](=O)[O-])n1CC(C)O (stereo not drawn) [SECNIDAZOLE]
Not Active: IC50 [1] | IC50 [2] | IC50 [3] | IC50 [4] | IC50 [5] | IC50 [6] | Ki [6]

Oc1c(I)cc(I)c2cccnc12 [IODOQUINOL]
Not Active: IC50 [1] | IC50 [2] | IC50 [3] | IC50 [4] | IC50 [5] | IC50 [6] | Ki [6]

NNC(=O)c1ccncc1 [ISONIAZID]
Not Active: IC50 [1] | IC50 [2] | IC50 [3] | IC50 [4] | IC50 [5] | IC50 [6] | Ki [6]
